Patent US20040141955A1, “Compositions related to a novel endophytic fungi and methods of use” (priority 2001, published 2004)
Read-outs that look alike come from different tables or passages of the source.

Experiments:
R. solani = type: cell-based; settings: for Colony diameter at 3 days (mm) / Viability: single compound; for Colony diameter at 3 days (mm): untreated control 70-72 mm; for lethal effect on R. solani: similar to that observed when R. solani is exposed to M. albus; for Percent Inibition of Colony growth at 3 days: 30 μl (0.92) of compound, or 30 μl each (0.92) in mixtures, per 65 mL head space
Method: In one set of experiments, a Petri plate divided by plastic walls into 3 equal spaces was used for the assay. A plug of R. solani was placed in one section of the Petri plate containing PDA. On another section of the plate, a lx2 cm piece of sterile filter paper was loaded with the test compound(s). All plates were wrapped with two layers of saran film and incubated at room temperature. The head space in each plate was 65 ml. Removing the agar plug and placing it onto a fresh PDA Petri plate determined the viability of R. Solani exposed to each test compound. Control experiments were also conducted along side without test compound(s).
The diameter of R. solani colonies on untreated control plates was 70-72 mm. The (+) symbol in the viability column of each table above indicates continued viability of the organism after exposure to and removal from the given compound or mixture, while the (−) symbol indicates death of the organism. Multiple (+) and (−) symbols in the same column indicate the results of multiple trials.
Synergism between the volatile organic components produced by M. albus was studied using the method of Limpel as described by Richer (Richer, D. L. 1987). The determination of synergy as described by Limpel can be represented by the following equation: […]
Where Ee is the expected additive effect of the two antifungal compounds, X is the observed percentage of inhibition of the test organism when antifungal agent A is applied alone at the rate used in the mixture, and Y is the observed percentage inhibition of the test organism when antifungal agent B is used alone at the rate used in the mixture.
Experimental studies were set up to determine if synergy exists between the components produced by M. albus. The biological activity of individual volatile organic compounds and mixtures of volatile organic compounds was tested according to the method described in Example 10 above. The observed inhibitory effects of the volatile organic compounds were then compared to the expected additive effects as calculated from the equation above.

[1] = test system: selected group of 7 test fungi; assay: Artificial atmosphere test of esters and individual esters; type: cell-based
Method: In another set of experiments, test solutions were prepared by placing the volatile organic compounds isolatable from Muscodor albus cultures grown on potato dextrose agar (PDA) in vials in the relative proportions that they occurred in the gas phase of such cultures. The test mixture was placed in a presterilized microcup (4×6 mm) located in the center of a Petri plate containing PDA. When not in use, the mixture was stored at 0° C. The test organisms, freshly growing and excised on 3 mm^3 agar blocks (at least 3 agar blocks per test fungus), were placed 2-3 cm from the microcup and the plate wrapped with two layers of parafilm and grown for 2 or more days at 23° C. Measurements were made on mycelial growth from the edge of the agar blocks. However, in the case of bacteria and Candida albicans they were streaked on the test side of the PDA plate and checked for new visible growth and viability by restreaking from the original area of the agar plate that had been inoculated. Appropriate controls were also set up in which no test solution was placed into the microcup. Tests on 3.2-90 μl of the artificial mixture per 50 CC of air space above the PDA plate were done on 3 replicates in order to obtain IC50 data for each test organism. Viability of the test microbes was made by aseptically removing the small agar block and placing it on a PDA plate and observing growth after 1-3 days.
To determine the relative biological activity of each class of compounds, individual classes were also tested in the relative amounts in which they occur at the optimum concentration of the entire mixture, which is 60 μl of test mixture per 50 CC of air space above the culture in a standard Petri plate. For instance, the esters represent 44% of the mixture of the identified volatiles and were tested at 26.4 μl/50 CC (0.53 μl/CC) air space and the same procedure was used for each of the other classes of compounds that were identified. This was done with a selected group of 7 test fungi.
Each compound in the class of esters was individually evaluated. […]

[2] = amount 0.92 (60 μl/65 mL head space)

## CCC(C)CO (centres unmarked) [2-Methyl-1-butanol]
R. solani; [2]
  Colony diameter at 3 days (mm): no growth

## CC(C)CCO [3-methyl-1-butanol]
R. solani
  lethal effect on R. solani: lethal effect
R. solani; amount 0.46 (30 μl/65 mL head space)
  Colony diameter at 3 days (mm): fuzz
R. solani; [2]
  Viability: no
  Colony diameter at 3 days (mm): no growth

## CC(=O)OCCC(C)C [3-methylbutyl acetate, 1-butanol, 3-methyl, acetate]
[1]; standard 3 day exposure period
  death of test fungus: under no conditions in any test, was death of any test fungus observed
[1]; tested at the level of 0.32 μl/CC (62% of all identified combined esters)
  inhibitory bioactivity of the individual ester: almost completely mimicked the results of all esters

## CCCC(=O)OCC [Ethyl butyrate]
R. solani
  Percent Inibition of Colony growth at 3 days: 86%
R. solani; [2]
  Colony diameter at 3 days (mm): no growth

## CCOC(=O)CC [Ethyl propionate]
R. solani
  Percent Inibition of Colony growth at 3 days: 76%

## CC(C)C(=O)O [Isobutyric acid]
R. solani
  lethal effect on R. solani: lethal effect
R. solani; [2]
  Viability: no
  Colony diameter at 3 days (mm): no growth

## CC(C)CCOC(=O)C(C)C [propionic acid, 2-methyl, 3-methylbutyl ester]
[1]; each ester individually evaluated, comparable test
  inhibitory bioactivity of the individual ester: minimal inhibitory bioactivity
